The values below come from patent publication US9493464B2, “Wee1 degradation inhibitors” (The Scripps Research Institute, priority 2012, dated 2016).

The subject of one experiment is K328M-Wee1-luciferase. The experiment is described as follows: Wee1-luciferase assay (stabilization of K328M-Wee1-luciferase). The experiment is classed as cell-based. The note with it: for % Inhibition, Wee1 Degradation: at 250 nM, reported relative to SR-1277 = 100%; for EC50: read-out: Wee1 Stabilization. From the text:
Steady-state level of K328M-Wee1-Luciferase (K328M-Wee1-Luc) was divided by Luciferase level (Luc) and plotted.
Similar assays have previously been described; PubChem AID 1807.

The target of the next experiment is CK1δ (Homo sapiens, UniProt P48730). The experiment is described as follows: In-house CK1d inhibition assay (TR-FRET). The experiment is classed as biochemical. The note with it: footnote b: in-house CK1d assay. As to the method:
In vitro kinase assay to detect CK1 or FLT3 activity: CK1 and FLT3 assays as well as complete kinase profile of 296 kinases was performed by Reaction Biology Corporation. For FLT3 20 μM final Abltide was used, sequence: [[…]]. For CK1 (all isoforms) 20 μM CK1 tide was used, sequence: [KRRRAL[pS]VASLPGL] in a standard kinase assay with ^32P-ATP and purified kinase. Incorporation of ^32P-ATP into the peptide was measured after a filter-binding assay. In-house CK1d inhibition assays were performed using a standard homogenous time-resolved fluorescence resonance energy transfer (TR-FRET) format in 50 mM Hepes, pH 7.0, 2.5 mM MgCl2, 0.1 mg/ml bovine serum albumin, 1 mM DL-dithiothreitol, 0.01% Triton X-100 (all from Sigma-Aldrich). Briefly, the CK1δ substrate (DEKTDDE, containing CK1 consensus sequence; 4 μL of a 500 nM stock solution) is labeled with a small Ulight acceptor dye (PerkinElmer). In the presence of 10 μL of 10 nM CK1δ, the Ulight peptide is phosphorylated at a single amino acid that is specifically recognized by a europium chelate (Eu)-labeled phosphospecific antibody. Assays were performed in the presence of 2 μL of compound at different (measured) concentrations, and reactions were stopped by adding 10 μL of 4 nM Eu-anti-p-Topo-IIa (PerkinElmer) in Lance Detection Buffer (Perkin Elmer). Upon excitation of the Eu-labeled antibody, energy is transferred to the acceptor dye resulting in the emission of detected light at 665 nm.
For orientation: Time-resolved FRET reads energy transfer from a long-lived donor to a nearby acceptor.

Some results are limits rather than exact numbers.

In general, IC50 refers to the concentration needed to halve the response being measured.

Sequence of CK1δ (P48730 whole entry, canonical isoform): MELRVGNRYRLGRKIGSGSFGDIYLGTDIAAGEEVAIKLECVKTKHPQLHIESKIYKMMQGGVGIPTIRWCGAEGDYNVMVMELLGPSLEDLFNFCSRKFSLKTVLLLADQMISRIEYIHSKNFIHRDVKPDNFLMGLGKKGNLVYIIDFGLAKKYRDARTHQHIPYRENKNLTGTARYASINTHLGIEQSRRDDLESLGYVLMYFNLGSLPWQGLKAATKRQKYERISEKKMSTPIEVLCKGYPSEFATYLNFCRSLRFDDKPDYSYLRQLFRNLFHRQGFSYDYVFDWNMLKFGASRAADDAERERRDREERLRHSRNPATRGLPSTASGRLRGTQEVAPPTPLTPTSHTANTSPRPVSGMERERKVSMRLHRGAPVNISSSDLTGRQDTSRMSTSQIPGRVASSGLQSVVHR

`c1cnc2ccc3[nH]c(CNc4nc(N5CCOCC5)nc5c4ncn5-c4ccsc4)nc3c2c1` [SR-1281]: the “% Inhibition, Wee1 Degradation” value with K328M-Wee1-luciferase is reported as 22.0%.

In the case of `CCOC(=O)c1cccc2[nH]c(CNc3nc(N4CCOCC4)nc4c3ncn4C(C)C)nc12` [SR-1283], in the experiment with K328M-Wee1-luciferase, the “% Inhibition, Wee1 Degradation” value is listed as 17.0%. In the case of `Nc1ccc2[nH]c(CNc3nc(N4CCOCC4)nc4c3ncn4-c3ccsc3)nc2c1` [SR-1286], in the experiment with K328M-Wee1-luciferase, the “% Inhibition, Wee1 Degradation” value was found to be 8.3%. As for `Nc1cccc2[nH]c(CNc3nc(N4CCOCC4)nc4c3ncn4-c3ccsc3)nc12` [SR-1287], the “% Inhibition, Wee1 Degradation” value in the experiment with K328M-Wee1-luciferase came to 15.6%. Same read-out and setting: in the case of `c1ccc2[nH]c(CNc3nc(N4CCCCC4)nc4c3ncn4-c3ccsc3)nc2c1` [SR-1288] it was 10.5%; in that of `C[C@@H](Nc1nc(NCc2nc3ccccc3[nH]2)c2ncn(-c3ccsc3)c2n1)c1ccccc1` [SR-1289], 9.2%; in that of `c1ccc2[nH]c(CNc3nc(N4CCSCC4)nc4c3ncn4-c3ccsc3)nc2c1` [SR-1291], 11.4%. Same read-out and setting: the figure for `c1ccc2[nH]c(CNc3nc(N4CCCC4)nc4c3ncn4-c3ccsc3)nc2c1` [SR-1293] is 9.9%; for `C=CCN(CC=C)c1nc(NCc2nc3ccccc3[nH]2)c2ncn(-c3ccsc3)c2n1` [SR-1295] it is 8.2%; for `OCCN1CCN(c2nc(NCc3nc4ccccc4[nH]3)c3ncn(-c4ccsc4)c3n2)CC1` [SR-1296] it is 10.0%. Take `c1ccc2c(c1)CCN2c1nc(NCc2nc3ccccc3[nH]2)c2ncn(-c3ccsc3)c2n1` [SR-1297]: in the experiment with K328M-Wee1-luciferase, the “% Inhibition, Wee1 Degradation” value was found to be 7.9%. Still for that read-out and setting: in the case of `c1ccc2[nH]c(CNc3nc(NCCN4CCOCC4)nc4c3ncn4-c3ccsc3)nc2c1` [SR-1298] it was 8.1%; in that of `NCCN1CCN(c2nc(NCc3nc4ccccc4[nH]3)c3ncn(-c4ccsc4)c3n2)CC1` [SR-1299], 8.6%; in that of `O=C(O)c1cccc2[nH]c(CNc3nc(N4CCOCC4)nc4c3ncn4-c3ccsc3)nc12` [SR-1401], 0.0%. The same measure, in the same setting: in the case of `CC(C)n1cnc2c(NCc3nc4c(C(=O)O)cccc4[nH]3)nc(N3CCOCC3)nc21` [SR-1402] it was 0.0%. Compound `O=[N+]([O-])c1cccc2[nH]c(CNc3nc(N4CCOCC4)nc4c3ncn4-c3cccc(F)c3)nc12` [SR-2364] had an IC50 on CK1δ of 46 nM. On the same count and under the same terms, the figure for `O=[N+]([O-])c1cccc2[nH]c(CNc3nc(N4CCOCC4)nc4c3ncn4-c3ccccc3F)nc12` [SR-2366] is 114 nM; for `O=[N+]([O-])c1cccc2[nH]c(CNc3nc(N4CCOCC4)nc4c3ncn4-c3cc(F)cc(F)c3)nc12` [SR-2368] it is 75 nM; for `CN1CCN(c2nc(NCc3nc4cc(C(F)(F)F)ccc4[nH]3)c3ncn(-c4ccoc4)c3n2)CC1` [SR-2867] it is 199 nM. At CK1δ, `CN1CCN(c2nc(NCc3nc4cc(Cl)ccc4[nH]3)c3ncn(-c4cccc(F)c4)c3n2)CC1` [SR-2870] showed a half-maximal inhibitory concentration (IC50) of 828 nM.

On CK1δ, `CN1CCN(c2nc(NCc3nc4cc(F)ccc4[nH]3)c3ncn(-c4cccc(F)c4)c3n2)CC1` [SR-2871] had an IC50 of 190 nM. On the same count and under the same terms, in the case of `NC1CCN(c2nc(NCc3nc4cc(Cl)ccc4[nH]3)c3ncn(-c4ccsc4)c3n2)CC1` [SR-2875] it was 119 nM; in that of `Clc1ccc2[nH]c(CNc3nc(N4CCNCC4)nc4c3ncn4-c3ccsc3)nc2c1` [SR-2876], 51 nM; in that of `c1ccc2[nH]c(CNc3nc(N4CCNCC4)nc4c3ncn4-c3ccoc3)nc2c1` [SR-2914], 116 nM. Same read-out and setting: the figure for `CC1CN(c2nc(NCc3nc4ccccc4[nH]3)c3ncn(-c4ccsc4)c3n2)CCN1` (centres unmarked) [SR-2915] is 199 nM; for `CCOC(=O)c1ccc2[nH]c(CNc3nc(N4CCNCC4)nc4c3ncn4-c3ccoc3)nc2c1` [SR-2916] it is 687 nM; for `Clc1ccc2[nH]c(CNc3nc(N4CCCNCC4)nc4c3ncn4-c3ccoc3)nc2c1` [SR-2917] it is 120 nM. `COC(=O)c1cccc2[nH]c(CNc3nc(N4CCNCC4)nc4c3ncn4-c3ccoc3)nc12` [SR-2927] yielded an IC50 on CK1δ of 33 nM. Same read-out and setting: in the case of `CN(C)C(=O)c1cccc2[nH]c(CNc3nc(N4CCNCC4)nc4c3ncn4-c3ccoc3)nc12` [SR-2928] it was 107 nM; in that of `Fc1cccc(-n2cnc3c(NCc4nc5ccccc5[nH]4)nc(N4CCOCC4)nc32)c1` [SR-2931], 101 nM; in that of `CN1CCN(c2nc(NCc3nc4ccccc4[nH]3)c3ncn(-c4cccc(F)c4)c3n2)CC1` [SR-2932], 306 nM.

On to `CCN1CCN(c2nc(NCc3nc4ccccc4[nH]3)c3ncn(-c4cccc(F)c4)c3n2)CC1` [SR-2948], for which it took 589 nM to reach half-maximal inhibition at CK1δ (IC50). In turn, `CC(C)N1CCN(c2nc(NCc3nc4ccccc4[nH]3)c3ncn(-c4cccc(F)c4)c3n2)CC1` [SR-2949] displayed an IC50 at CK1δ of 2410 nM. This IC50 lies about 4.1-fold higher than the previous one. Same read-out and setting: in the case of `Fc1cccc(-n2cnc3c(NCc4nc5c(Cl)cccc5[nH]4)nc(N4CCOCC4)nc32)c1` [SR-2950] it was 153 nM; in that of `Fc1cccc(-n2cnc3c(NCc4cccc5ccccc45)nc(N4CCOCC4)nc32)c1` [SR-3004], 666 nM. Still for that read-out and setting: the figure for `Fc1cccc(-n2cnc3c(NCc4nc5ccccc5[nH]4)nc(N4CCCCC4)nc32)c1` [SR-3005] is over 10000 nM; for `Fc1cccc(-n2cnc3c(NCc4nc5ccccc5[nH]4)nc(N4CCCC4)nc32)c1` [SR-3006] it is 884 nM. As for `c1ccc(-c2cccc(-n3cnc4c(NCc5nc6ccccc6[nH]5)nc(N5CCOCC5)nc43)c2)cc1` [SR-3048], the IC50 on CK1δ was over 10000 nM. The same measure, in the same setting: the figure for `Fc1cccc(-n2cnc3c(NCc4nc5ccccc5[nH]4)nc(N4CCC(F)(F)CC4)nc32)c1` [SR-3060] is over 10000 nM; for `Fc1cccc(-n2cnc3c(NCc4ccc5c(c4)OCO5)nc(N4CCOCC4)nc32)c1` [SR-3061] it is 199 nM; for `NC1CN(c2nc(NCc3nc4ccccc4[nH]3)c3ncn(-c4cccc(F)c4)c3n2)C1` [SR-3084] it is 382 nM. The compound `Fc1cccc(-n2cnc3c(NCc4nc5c(F)cccc5[nH]4)nc(N4CCOCC4)nc32)c1` [SR-3086] registered an IC50 against CK1δ of 37 nM. This IC50 is about 10-fold lower than that of the compound before.

In turn, `OC1CN(c2nc(NCc3nc4ccccc4[nH]3)c3ncn(-c4cccc(F)c4)c3n2)C1` [SR-3087] displayed an IC50 against CK1δ of 482 nM.

`NC1CN(c2nc(NCc3nc4cc(Cl)ccc4[nH]3)c3ncn(-c4cccc(F)c4)c3n2)C1` [SR-3095] showed an IC50 against CK1δ of 360 nM. This IC50 and that of the compound before are within 1.5-fold of each other.

`C[C@@H]1CN(c2nc(NCc3nc4cc(Cl)ccc4[nH]3)c3ncn(-c4cccc(F)c4)c3n2)C[C@H](C)O1` [SR-3096] showed an IC50 against CK1δ of 830 nM. This IC50 is about 2.3-fold higher than that of the compound before. Same read-out and setting: in the case of `NC1CCN(c2nc(NCc3nc4cc(Cl)ccc4[nH]3)c3ncn(-c4cccc(F)c4)c3n2)C1` (centres unmarked) [SR-3098] it was 150 nM. On the same count and under the same terms, in the case of `Fc1cccc(-n2cnc3c(NCc4nc5cc(F)ccc5[nH]4)nc(N4CCOCC4)nc32)c1` [SR-3162] it was 88 nM; in that of `Fc1cccc(-n2cnc3c(NCc4nc5cc(F)ccc5[nH]4)nc(N4CCNCC4)nc32)c1` [SR-3163], 62 nM. For the compound `CC(C)n1cnc2c(NCc3nc4ccccc4[nH]3)nc(N3CCOCC3)nc21` [SR-648126], in the experiment on K328M-Wee1-luciferase, the “% Inhibition, Wee1 Degradation” value was found to be 4.1% and the EC50 amounted to 5300 nM.

Turning to `c1ccc(N2CCN(c3nc(NCc4nc5ccccc5[nH]4)c4ncn(-c5ccsc5)c4n3)CC2)nc1` [SR-648378], in the experiment with K328M-Wee1-luciferase, the “% Inhibition, Wee1 Degradation” value turned out to be 4.0% and the EC50 came out at 4300 nM. The matching figures for `c1ccc(-n2cnc3c(NCc4nc5ccccc5[nH]4)nc(N4CCOCC4)nc32)cc1` [SR-649967]: 4.0% and 4300 nM. The matching figures for `CC(C)n1cnc2c(NCc3nc4ccccc4[nH]3)nc(Nc3cccnc3)nc21` [SR-655534]: 3.4% and 3800 nM.

Take `CC(C)n1cnc2c(NCc3nc4ccccc4[nH]3)nc(Nc3ccncn3)nc21` [SR-656428]: in the experiment with K328M-Wee1-luciferase, the “% Inhibition, Wee1 Degradation” value worked out at 4.0% and the EC50 was 4400 nM. The matching figures for `O=C(NC1CC1)c1ccc(-c2nc(NCc3nc4ccccc4[nH]3)c3ncn(-c4ccsc4)c3n2)cc1` [SR-658807]: 3.6% and 4100 nM.

Take `CC(C)n1cnc2c(NCc3nc4ccccc4[nH]3)nc(Nc3cnccn3)nc21` [SR-660754]: in the experiment on K328M-Wee1-luciferase, the “% Inhibition, Wee1 Degradation” value worked out at 5.3% and the EC50 was 4000 nM.

On to `c1ccc2[nH]c(CNc3nc(Nc4cnccn4)nc4c3ncn4-c3ccsc3)nc2c1` [SR-660983], for which, in the experiment with K328M-Wee1-luciferase, the “% Inhibition, Wee1 Degradation” value was found to be 2.9% and the EC50 came to 3800 nM. On to `CCN(CC)CCNC(=O)c1c(C)[nH]c(/C=C2\C(=O)Nc3ccc(F)cc32)c1C` [Sutent, reference compound], for which, in the experiment with K328M-Wee1-luciferase (HeLa cells, result in words), the “stabilization of K328M-Wee1-luciferase” value was “does not stabilize K328M-Wee1-luciferase”.
